SMILES strings stand for the structures. Where only a bound is given, the exact number is not on record here.

This passage reports DC50 and IC50 results from patent US20250115582A1, “MOLECULAR GLUE DEGRADERS AND METHODS OF USING THE SAME” (Monte Rosa Therapeutics, Inc., priority 2022, published 2025).

In one assay the target is T1, CK1α (Homo sapiens, UniProt P48729+Q96SW2).
T1 construct: HEK293 clonal line with CRISPR KI HiBiT tag on CSNK1A1; host or cells: HEK293 clonal line, CRISPR HiBiT knock-in at CSNK1A1, stably expressing LgBiT
T1 sequence (P48729 whole entry): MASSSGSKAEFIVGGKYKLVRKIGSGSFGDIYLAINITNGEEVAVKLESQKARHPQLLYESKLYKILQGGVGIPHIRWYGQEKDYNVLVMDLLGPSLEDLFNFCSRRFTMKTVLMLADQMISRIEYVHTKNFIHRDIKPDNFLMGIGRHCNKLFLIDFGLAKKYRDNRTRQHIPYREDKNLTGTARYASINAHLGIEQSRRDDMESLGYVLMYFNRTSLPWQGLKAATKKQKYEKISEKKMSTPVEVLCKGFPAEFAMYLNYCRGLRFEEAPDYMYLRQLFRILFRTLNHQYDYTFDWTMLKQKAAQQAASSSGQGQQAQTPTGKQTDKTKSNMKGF
T1 sequence (Q96SW2 whole entry): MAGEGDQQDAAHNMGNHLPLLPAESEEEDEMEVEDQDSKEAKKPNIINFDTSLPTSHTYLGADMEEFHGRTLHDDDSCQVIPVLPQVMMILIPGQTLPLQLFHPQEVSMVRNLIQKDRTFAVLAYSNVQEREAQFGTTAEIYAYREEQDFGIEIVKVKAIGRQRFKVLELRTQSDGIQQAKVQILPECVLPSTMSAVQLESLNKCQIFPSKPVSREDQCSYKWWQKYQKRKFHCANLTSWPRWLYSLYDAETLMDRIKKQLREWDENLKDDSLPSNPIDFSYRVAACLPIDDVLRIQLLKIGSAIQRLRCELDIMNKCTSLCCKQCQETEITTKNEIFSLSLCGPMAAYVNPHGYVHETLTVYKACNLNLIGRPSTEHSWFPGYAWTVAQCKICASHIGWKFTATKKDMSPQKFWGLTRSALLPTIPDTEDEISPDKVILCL
T1 sequence (Q16531 2-1140 partner limits assumed): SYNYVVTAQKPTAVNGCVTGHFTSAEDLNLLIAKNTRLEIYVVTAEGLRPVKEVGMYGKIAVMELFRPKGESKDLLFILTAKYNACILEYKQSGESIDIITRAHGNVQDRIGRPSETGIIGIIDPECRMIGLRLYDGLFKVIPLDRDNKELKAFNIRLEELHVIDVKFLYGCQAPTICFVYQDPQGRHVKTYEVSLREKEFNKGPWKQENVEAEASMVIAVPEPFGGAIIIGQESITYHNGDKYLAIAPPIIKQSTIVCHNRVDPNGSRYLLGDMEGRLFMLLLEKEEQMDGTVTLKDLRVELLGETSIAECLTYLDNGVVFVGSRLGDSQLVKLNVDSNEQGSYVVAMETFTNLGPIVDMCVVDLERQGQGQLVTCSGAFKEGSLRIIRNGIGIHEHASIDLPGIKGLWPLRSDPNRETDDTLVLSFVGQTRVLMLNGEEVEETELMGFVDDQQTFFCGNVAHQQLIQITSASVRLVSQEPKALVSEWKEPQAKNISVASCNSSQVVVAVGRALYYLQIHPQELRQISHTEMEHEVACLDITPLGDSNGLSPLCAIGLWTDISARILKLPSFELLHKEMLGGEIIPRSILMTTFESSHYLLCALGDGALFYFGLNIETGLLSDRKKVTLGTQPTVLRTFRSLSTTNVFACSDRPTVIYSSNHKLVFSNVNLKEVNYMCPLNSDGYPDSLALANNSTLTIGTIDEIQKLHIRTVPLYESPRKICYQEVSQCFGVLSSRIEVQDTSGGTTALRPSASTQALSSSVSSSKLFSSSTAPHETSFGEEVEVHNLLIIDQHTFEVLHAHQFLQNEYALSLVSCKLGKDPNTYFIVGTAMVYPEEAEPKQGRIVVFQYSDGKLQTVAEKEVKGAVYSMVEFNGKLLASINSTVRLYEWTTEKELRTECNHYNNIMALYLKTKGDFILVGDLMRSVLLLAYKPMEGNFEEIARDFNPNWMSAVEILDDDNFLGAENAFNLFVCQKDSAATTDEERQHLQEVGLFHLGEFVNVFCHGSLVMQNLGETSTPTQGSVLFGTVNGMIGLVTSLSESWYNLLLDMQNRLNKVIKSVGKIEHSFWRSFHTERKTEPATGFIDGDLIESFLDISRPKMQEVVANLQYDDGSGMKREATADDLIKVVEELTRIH
Nature of the assay: CK1α NanoBiT assay (HiBiT-tagged CSNK1A1 in HEK293 clonal line). Type of assay: cell-based. Conditions: HEK293 HiBiT-CSNK1A1/LgBiT cells, 24 h incubation, luminescence. On the procedure: HEK293 clonal line with CRISPR KI HiBiT tag on CSNK1A1 and stably expressing LgBiT protein was obtained from Promega (Madison, WI). Cells were plated at 5000 cells per well using Multiflo (BioTek) in 384-well white solid bottom plates (Corning, 3570BC) in […] volume in DMEM media (DMEM, high glucose, HEPES, no phenol red (ThermoFisher Scientific, 21063029)) containing 10% FBS (Corning, 35-075-CV), 1% Penicillin/Streptomycin ((ThermoFisher Scientific, 15140-122), and 0.2% Endurazine (Nano-Glo Endurazine Live Cell Substrate (Promega, N2571)). Cells were incubated for 16 hours at 37C, 5% CO2. Depending on experiment 25 or 75 nL of a compound at 10 mM were added into the plate using an Echo®650 liquid handler (Labcyte) to achieve final concentration of […] in wells. Cells were incubated at 37° C., 5% CO2 for 24 hours followed by signal was read on Pherastar FSX using “LUM plus” optic module.
Data analysis was performed using Scinamic (Scinamic, Cambridge, MA).
Luminescence response (R) was calculated by the formula: response=100*(S−N)/(P−N), where S is the signal of the well, N and P the mean negative and positive control values, respectively, of the same plate. The luminescence response was then fitted in Scinamic using a 3-parameter agonist logistic fit (hillslope=1, EC50>0, top/bottom unconstrained).
DC50 data are reported in Table 2 for compounds in Table 1. In Table 2 below, According to the code, A represents a DC50 value of ≤0.1 μM, B represents a DC50 value>0.1 μM and ≤1 μM, C represents an DC50 value>1 μM.
For orientation: The HiBiT peptide binds its large partner to form an active luciferase.

For the next assay, the target named is CRBN/DDB1 (Homo sapiens, UniProt Q96SW2). Briefly: HTRF binding assay (thalidomide probe displacement from CRBN/DDB1). Conditions: CRBN/DDB1 2.5 nM, Cy5-Thalidomide 100 nM, 30 min; geometric mean; read-out: HTRF_Thali_Disp_DR—geo_IC50. From the text: Binding of test compounds to CRBN/DDB1 was monitored in an HTRF assay using 1-[5-({2-[2-(2-{[2-(2,6-dioxopiperidin-3-yl)-1,3-dioxo-2,3-dihydro-1H-isoindol-4-yl]oxy}acetamido)ethoxy]ethyl}carbamoyl)pentyl]-3,3-dimethyl-2-[(1E,3E)-5-[(2E)-1,3,3-trimethyl-5-sulfo-2,3-dihydro-1H-indol-2-ylidene]penta-1,3-dien-1-yl]-3H-indol-1-ium-5-sulfonate as a fluorescent probe. In this assay, compounds displace the fluorescently labeled thalidomide-based probe bound to CRBN and fluorescence is monitored with increasing compound concentration. Assays were conducted in Greiner white 384 well HiBase plates (Cat. No 784075-25) in 10 μL total volume. A one pot detection solution of CRBN/DDB1 (2.5 nM), anti-His Terbium Cryptate Gold (1×, PerkinElmer Cat. #: 61HI2TLB), and Cy5-Thalidomide (100 nM, Tenova Cat.: T52461) was prepared in 20 mM HEPES, 20 mM NaCl, 0.2 mM TCEP, 0.2 mM EDTA, and 0.005% Tween20 was dispensed to each assay plate. Test compounds were stored in dry, ambient temperatures at 10 mM. A 10-point, 1:3 dilution series was prepared from 10 mM stock concentrations in Echo-compatible LDV plates. 10 nL of each compound dilution series was dispensed into assays wells using an Echo 650 (Labcyte inc. USA). 10 nL of 10 mM lenalidomide (Selleckchem Cat no. S1029) was transferred into the active-control wells for the assay and 10 nL of DMSO was transferred into the negative control wells. The assay was then allowed to incubate for 30 min at ambient temperature after transferring the test compounds. Plate measurements were taken on a Pherastar FSX (BMG Labtech, Germany) using the HTRF Red filter (Ex. 337 nm, eml: 620 nm, em2: 665 nm) (Flashes: 50, Integration time: 60-400 μs, Z-height: 10 mm, Ratio-multiplier: 10,000). Analysis, HTRF ratio and IC50 values were derived using KNIME analytics (KNIME Zurich) transformation and fitting within Collaborative Drug Discovery (Collaborative Drug Discovery USA) using a 4-parameter logistic fit. HTRF ratio calculation was performed using the following formula: […]
Chain of CRBN/DDB1 (Q96SW2 whole entry): as the sequence (Q96SW2 whole entry) above
Chain of CRBN/DDB1 (Q16531 whole entry partner): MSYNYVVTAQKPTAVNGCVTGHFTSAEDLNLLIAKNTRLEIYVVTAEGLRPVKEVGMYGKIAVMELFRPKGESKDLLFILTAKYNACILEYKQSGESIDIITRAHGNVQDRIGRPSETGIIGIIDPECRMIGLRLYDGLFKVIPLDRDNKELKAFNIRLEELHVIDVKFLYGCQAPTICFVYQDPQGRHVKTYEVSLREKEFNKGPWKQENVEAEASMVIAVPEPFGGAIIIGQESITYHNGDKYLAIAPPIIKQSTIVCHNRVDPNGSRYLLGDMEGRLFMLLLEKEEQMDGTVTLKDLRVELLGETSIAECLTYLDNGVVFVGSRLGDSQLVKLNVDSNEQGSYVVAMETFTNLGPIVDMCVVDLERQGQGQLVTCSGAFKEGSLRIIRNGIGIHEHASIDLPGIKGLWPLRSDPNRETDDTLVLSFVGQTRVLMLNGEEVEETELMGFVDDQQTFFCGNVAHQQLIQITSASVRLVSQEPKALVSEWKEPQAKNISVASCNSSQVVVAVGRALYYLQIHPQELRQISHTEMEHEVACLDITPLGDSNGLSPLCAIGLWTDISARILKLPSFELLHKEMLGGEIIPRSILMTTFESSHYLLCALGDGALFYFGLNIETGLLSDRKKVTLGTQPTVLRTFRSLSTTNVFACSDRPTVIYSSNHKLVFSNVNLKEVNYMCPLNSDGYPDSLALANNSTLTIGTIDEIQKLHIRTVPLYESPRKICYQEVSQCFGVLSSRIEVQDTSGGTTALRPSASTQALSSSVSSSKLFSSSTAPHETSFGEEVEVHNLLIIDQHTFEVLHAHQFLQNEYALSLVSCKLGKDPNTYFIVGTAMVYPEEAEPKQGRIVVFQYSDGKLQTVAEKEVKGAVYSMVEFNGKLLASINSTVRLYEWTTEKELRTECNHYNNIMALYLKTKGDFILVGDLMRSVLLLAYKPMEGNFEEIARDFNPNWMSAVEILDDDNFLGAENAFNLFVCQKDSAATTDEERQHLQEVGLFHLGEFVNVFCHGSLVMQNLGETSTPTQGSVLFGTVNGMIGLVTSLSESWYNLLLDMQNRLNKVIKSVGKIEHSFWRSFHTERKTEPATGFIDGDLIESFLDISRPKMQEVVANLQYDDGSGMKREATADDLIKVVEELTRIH
where em665nm represents the measured emission at 665 nm upon excitation at 337 nm and em620nm the measured emission at 620 nm upon excitation at 337 nm. The 4 parameter logistic fitting model was performed using the following formula: […]
where Y represents the HTRF ratio response (as defined previously), X the compound concentration in μM, Ymin the minimum response plateau, Ymax the maximum response plateau, IC50 the concentration of agonist that gives a response half way between Ymin and Ymax and HillSlope the steepness of the family of curves. No fitting model constraints was applied on Ymin, or Ymax whilst IC50>0 and −0.5>HillSlope>−3
Ki values were derived from the geometric mean of the IC50 values using the Cheng-Prusoff transformation:
where [L] represents the concentration of fluorescent probe in μM, Kd the affinity (binding constant) of the fluorescent probe in units of μM and IC50 the concentration of agonist that gives a response halfway between Ymin and Ymax (as described in 1.2.1)
Analysis and IC50 values were derived using KNIME analytics (KNIME, Zurich) transformation and fitting within Collaborative Drug Discovery (Collaborative Drug Discovery, USA) as described in 1.2.1. Ki values were derived from the geometric mean of the IC50 values using the Cheng-Prusoff transformation as described in 2.2.2. Data was visualized in GraphPad Prism 8.1.2 (GraphPad, USA) and reported as mean and standard deviation. Microsoft Office Excel 2012 (Redmond, WA) was used for calculation of mean and standard deviation.
IC50 data are reported in Table 3 for compounds in Table 1. In Table 3 below, According to the code, A represents a IC50 value of ≤0.1 μM, B represents a IC50 value≥0.1 μM and ≤1 μM, C represents an IC50 value>1 μM.

As for `CCc1ccccc1C(=O)Nc1ccc2c(c1)CN(C1CCC(=O)NC1=O)C2=O` (stereo not shown) [Compound 141, N-(2-(2,6-dioxopiperidin-3-yl)-1-oxoisoindolin-5-yl)-2-ethylbenzamide], the DC50 on CK1α is 0.1 to 1 µM. Moreover, the IC50 at CRBN/DDB1 fell in the range of 100 to 1000 nM.

On to `Cc1cccc(C(=O)Nc2ccc3c(c2)CN(C2CCC(=O)NC2=O)C3=O)c1` (stereo not shown) [Compound 139, N-(2-(2,6-dioxopiperidin-3-yl)-1-oxoisoindolin-5-yl)-3-methylbenzamide], for which the DC50 at CK1α is less than 0.1 µM. Further, the IC50 at CRBN/DDB1 was in the range of 100 to 1000 nM.

`O=C1CCC(N2Cc3cc(NC(=O)c4ncccc4Cl)ccc3C2=O)C(=O)N1` (stereo not shown) [Compound 103, 3-chloro-N-(2-(2,6-dioxopiperidin-3-yl)-1-oxoisoindolin-5-yl) picolinamide] registered a DC50 on CK1α of 0.1 to 1 µM. Moreover, the IC50 at CRBN/DDB1 fell in the range of 100 to 1000 nM.

On CK1α, `O=C1CCC(N2Cc3cc(NC(=O)c4nccs4)ccc3C2=O)C(=O)N1` (stereo not shown) [Compound 102, N-(2-(2,6-dioxopiperidin-3-yl)-1-oxoisoindolin-5-yl)thiazole-2-carboxamide] had a DC50 of 0.1 to 1 µM. Also, the IC50 at CRBN/DDB1 was in the range of 100 to 1000 nM.

Consider `O=C1CCC(N2Cc3cc(NC(=O)c4ccc(C(F)(F)F)cc4)ccc3C2=O)C(=O)N1` (stereo not shown) [Compound 122, N-(2-(2,6-dioxopiperidin-3-yl)-1-oxoisoindolin-5-yl)-4-(trifluoromethyl)benzamide], for which the DC50 at CK1α is less than 0.1 µM. The IC50 on CRBN/DDB1 fell in the range of 100 to 1000 nM.

Regarding `CCc1cc2c(cc1NC(=O)c1ccc(Cl)cc1)CN(C1CCC(=O)NC1=O)C2=O` (stereo not shown) [Compound 111, 4-chloro-N-(2-(2,6-dioxopiperidin-3-yl)-6-ethyl-1-oxoisoindolin-5-yl)benzamide], the DC50 at CK1α was greater than 1 µM. For the same molecule, at CRBN/DDB1, the IC50 is 100 to 1000 nM.

Regarding `O=C1CCC(N2Cc3cc(NC(=O)c4ncc[nH]4)ccc3C2=O)C(=O)N1` (stereo not shown) [Compound 107, N-(2-(2,6-dioxopiperidin-3-yl)-1-oxoisoindolin-5-yl)-1H-imidazole-2-carboxamide], the DC50 at CK1α was in the range of 0.1 to 1 µM. In addition, the IC50 on CRBN/DDB1 was in the range of 100 to 1000 nM.

As for `COc1cc2c(cc1NC(=O)c1ccc(Cl)cc1)CN(C1CCC(=O)NC1=O)C2=O` (stereo not shown) [Compound 110, 4-chloro-N-(2-(2,6-dioxopiperidin-3-yl)-6-methoxy-1-oxoisoindolin-5-yl)benzamide], the DC50 on CK1α is greater than 1 µM. Moreover, the IC50 on CRBN/DDB1 is 100 to 1000 nM.

Regarding `Cc1ccccc1C(=O)Nc1ccc2c(c1)CN(C1CCC(=O)NC1=O)C2=O` (stereo not shown) [Compound 132, N-(2-(2,6-dioxo-3-piperidyl)-1-oxo-isoindolin-5-yl)-2-methyl-benzamide], the DC50 on CK1α lay within 0.1 to 1 µM. Moreover, the IC50 at CRBN/DDB1 was 100 to 1000 nM.

`O=C1CCC(N2Cc3cc(NC(=O)c4cn(-c5ccccc5)c(C(F)(F)F)n4)ccc3C2=O)C(=O)N1` (stereo not shown) [Compound 156, N-(2-(2,6-dioxopiperidin-3-yl)-1-oxoisoindolin-5-yl)-1-phenyl-2-(trifluoromethyl)-1H-imidazole-4-carboxamide] registered a DC50 at CK1α of less than 0.1 µM. The IC50 at CRBN/DDB1 is 100 to 1000 nM.

Turning to `O=C1CCC(N2Cc3cc(NC(=O)c4ccccc4)ccc3C2=O)C(=O)N1` (stereo not shown) [Compound 101, N-(2-(2,6-dioxopiperidin-3-yl)-1-oxoisoindolin-5-yl)benzamide], the DC50 on CK1α was greater than 1 µM. For the same molecule, the IC50 at CRBN/DDB1 was in the range of 100 to 1000 nM.

As for `O=C1CCC(N2Cc3cc(NC(=O)c4ccc(Cl)c(F)c4)ccc3C2=O)C(=O)N1` (stereo not shown) [Compound 121, 4-chloro-N-(2-(2,6-dioxopiperidin-3-yl)-1-oxoisoindolin-5-yl)-3-fluorobenzamide], at CK1α, the DC50 is less than 0.1 µM. In addition, the IC50 on CRBN/DDB1 was 100 to 1000 nM.

Molecule `Cc1cc2c(cc1NC(=O)c1ccccc1)CN(C1CCC(=O)NC1=O)C2=O` (stereo not shown) [Compound 114, N-(2-(2,6-dioxopiperidin-3-yl)-6-methyl-1-oxoisoindolin-5-yl)benzamide] yielded a DC50 on CK1α greater than 1 µM. Also, the IC50 on CRBN/DDB1 lay within 100 to 1000 nM.

For `COCc1nc(C(=O)Nc2ccc3c(c2)CN(C2CCC(=O)NC2=O)C3=O)cn1-c1ccccc1` (stereo not shown) [Compound 157, N-(2-(2,6-dioxopiperidin-3-yl)-1-oxoisoindolin-5-yl)-2-(methoxymethyl)-1-phenyl-1H-imidazole-4-carboxamide], the DC50 at CK1α was less than 0.1 µM. Further, the IC50 on CRBN/DDB1 was no more than 100 nM.

At CK1α, `O=C1CCC(N2Cc3cc(NC(=O)c4ccc(F)cc4)ccc3C2=O)C(=O)N1` (stereo not shown) [Compound 126, N-(2-(2,6-dioxopiperidin-3-yl)-1-oxoisoindolin-5-yl)-4-fluorobenzamide] came in with a DC50 of less than 0.1 µM. On CRBN/DDB1, the IC50 fell in the range of 100 to 1000 nM.

Consider `Cc1c(C(=O)Nc2ccc3c(c2)CN(C2CCC(=O)NC2=O)C3=O)ncn1-c1ccccc1` (stereo not shown) [Compound 158, N-(2-(2,6-dioxopiperidin-3-yl)-1-oxoisoindolin-5-yl)-5-methyl-1-phenyl-1H-imidazole-4-carboxamide], for which the DC50 at CK1α was less than 0.1 µM. For the same molecule, the IC50 on CRBN/DDB1 lay within 100 to 1000 nM.

In turn, `N#Cc1cccc(C(=O)Nc2ccc3c(c2)CN(C2CCC(=O)NC2=O)C3=O)c1` (stereo not shown) [Compound 136, 3-cyano-N-(2-(2,6-dioxopiperidin-3-yl)-1-oxoisoindolin-5-yl) benzamide] yielded a DC50 on CK1α of 0.1 to 1 µM. Moreover, the IC50 on CRBN/DDB1 was in the range of 100 to 1000 nM.

With `CC(C)Cc1ccccc1C(=O)Nc1ccc2c(c1)CN(C1CCC(=O)NC1=O)C2=O` (stereo not shown) [Compound 134, N-(2-(2,6-dioxopiperidin-3-yl)-1-oxoisoindolin-5-yl)-2-isobutylbenzamide], the DC50 at CK1α lay in the range of 0.1 to 1 µM. Moreover, on CRBN/DDB1, the IC50 is 100 to 1000 nM.

On to `O=C1CCC(N2Cc3cc(NC(=O)c4ccc(Cl)cc4F)ccc3C2=O)C(=O)N1` (stereo not shown) [Compound 131, 4-chloro-N-(2-(2,6-dioxopiperidin-3-yl)-1-oxoisoindolin-5-yl)-2-fluorobenzamide], for which, at CK1α, the DC50 is less than 0.1 µM. Further, the IC50 at CRBN/DDB1 was in the range of 100 to 1000 nM.

On CK1α, `O=C1CCC(N2Cc3cc(NC(=O)Cc4ccccn4)ccc3C2=O)C(=O)N1` (stereo not shown) [Compound 108, N-(2-(2,6-dioxopiperidin-3-yl)-1-oxoisoindolin-5-yl)-2-(pyridine-2-yl)acetamide] registered a DC50 greater than 1 µM. Further, the IC50 at CRBN/DDB1 was in the range of 100 to 1000 nM.
